Reference: PMC10997755, “Discovery of a small-molecule inhibitor that traps Polθ on DNA and synergizes with PARP inhibitors” (Nature Communications, 2024)
Several values for one entry are separate records, joined by “and”; a condition that tells them apart may be missing. Equal entries are not always repeated. Entries after “also recorded” stand apart in the source; their conditions may differ.

Tests used:
[1] = system: MMEJ reporter (EJ2-GFP) in U2OS cells; experiment: Chromosomal MMEJ GFP assay; assay type: cell-based; details: for % GFP/dsRED ratio, Combined mean: Combined EXP.1-3 (0 uM: 3.78889); for % GFP/dsRED ratio, mean per experiment: means of EXP.1, 2, 3 (0 uM: 4.4, 3.73333, 3.23333); for % GFP/dsRED ratio: single replicates of EXP.1-3
Protocol: U2OS cells harboring the chromosomal (EJ2-GFP cassette) MMEJ reporter were plated and treated with various concentrations of RTX-161 for 16 h. Cells were co-transfected with either pCMV–3x- NLS-I-SceI or control vector pCMV-3x-NLS using Lipofectamine 2000 (Invitrogen) along with dsRED-Mito cDNA (control for transfection efficiency). GFP^+ frequencies were measured 3 days post transfection by FACS using Facscanto (Becton Dickinson) in triplicates and corrected for transfection efficiency and background events.

[2] = system: Brca1^CC/CC;Polq^-/- cells; experiment: Clonogenic assay; assay type: cell-based, mouse; details: for survival relative to 0 uM / survival relative to 0 uM, mean of the four experiments: cc POLQ KO; for survival relative to 0 uM: experiments 2023-04-07 and 2023-04-13; for survival relative to 0 uM, mean of the four experiments: last block without head (mean of 4)
Protocol: Cells were plated on six or twelve or twenty-four well plates. In six well plate, […], BRCA1 -/-, […]; In twelve well plate, […], BRCA1 -/-, PALB2 mut and 400 cells/ well of wildtype pair was plated; In twenty-four well plate, […], BRCA1 -/-, PALB2 mut and 300 cells/ well of wildtype pair was plated. […] The medium was replaced every 2 days until the colonies were ready for staining in 10–12 days. For staining: Medium was removed from plates, and cells were rinsed with PBS. Fixation was carried out with—Water: Ethanol: Acetic acid (5:4:1) for 30 min followed by staining of colonies with 0.5% crystal violet in Water: Ethanol (3:2) for 2 h at room temperature. The plates were rinsed with water and left for drying overnight at room temperature. Colonies were then counted and IC50 was calculated using results from 3 or more independent experiments. Response curves are shown as mean colony formation +/- S.E.M.

[3] = system: Brca1^CC/CC MEFs; experiment: Clonogenic assay; assay type: cell-based, mouse; details: for pooled Average (normalized) / Normalized: MEF CC; for pooled Average (normalized): pooled average of 3 experiments; for Normalized: single experiments 1-3, 0 micro M = 100; for survival relative to 0 uM / survival relative to 0 uM, mean of the four experiments: cc; for survival relative to 0 uM: 150 cells/well, experiments 2023-04-07 and 2023-04-13; for survival relative to 0 uM, mean of the four experiments: last block without head (mean of 4)
Protocol: (§1) Cells were plated on six or twelve or twenty-four well plates. In six well plate, 1000 cells/ well of BRCA2 -/-, BRCA1 -/-, PALB2 mut and 500 cells/ well of wildtype pair was plated; In twelve well plate, 600 cells/ well of BRCA2 -/-, BRCA1 -/-, PALB2 mut and 400 cells/ well of wildtype pair was plated; In twenty-four well plate, 500 cells/ well of BRCA2 -/-, BRCA1 -/-, PALB2 mut and 300 cells/ well of wildtype pair was plated. […] The medium was replaced every 2 days until the colonies were ready for staining in 10–12 days. For staining: Medium was removed from plates, and cells were rinsed with PBS. Fixation was carried out with—Water: Ethanol: Acetic acid (5:4:1) for 30 min followed by staining of colonies with 0.5% crystal violet in Water: Ethanol (3:2) for 2 h at room temperature. The plates were rinsed with water and left for drying overnight at room temperature. Colonies were then counted and IC50 was calculated using results from 3 or more independent experiments. Response curves are shown as mean colony formation +/- S.E.M.

[4] = system: Brca1-WT MEFs; experiment: Clonogenic assay; assay type: cell-based, mouse; details: for pooled Average (normalized) / Normalized: MEF WT; for pooled Average (normalized): pooled average of 3 experiments; for Normalized: single experiments 1-3, 0 micro M = 100; for survival relative to 0 uM / survival relative to 0 uM, mean of the four experiments: WT; for survival relative to 0 uM: experiments 2023-04-07 and 2023-04-13; for survival relative to 0 uM, mean of the four experiments: last block without head (mean of 4)
Protocol: as §1

[5] = 150 cells/well, RTx-161 1.25 uM
[6] = 300 cells/well, RTx-161 1.25 uM

CN(C(=O)Oc1c(N2CCN(CCO)C2=O)cc(C(F)(F)F)cc1C(F)(F)F)c1ccc(F)cc1 [RTx-161]
% GFP/dsRED ratio, Combined mean ([1]; 5 uM): 3.422% | % GFP/dsRED ratio, mean per experiment ([1]; 5 uM): 3.067% and 3.933% and 3.267% | % GFP/dsRED ratio ([1]; 5 uM): 2.8% and 4% and 2.5% and 3.3% and 3.6% and 3.5% and 3.1% and 4.2% and 3.8% | % GFP/dsRED ratio, Combined mean ([1]; 10 uM): 3.378% | % GFP/dsRED ratio, mean per experiment ([1]; 10 uM): 3.067% and 3.8% and 3.267% | % GFP/dsRED ratio ([1]; 10 uM): 2.9% and 3.3% and 2.6% and 3.2% and 3.9% and 3.4% and 3.1% and 4.2% and 3.8% | % GFP/dsRED ratio, Combined mean ([1]; 15 uM): 2.733% | % GFP/dsRED ratio, mean per experiment ([1]; 15 uM): 3.033% and 2.067% and 3.1% | % GFP/dsRED ratio ([1]; 15 uM): 2.9% and 2.2% and 3.3% and 2.8% (2×) and 2.1% and 3.4% and 1.9% and 3.2% | cellular MMEJ (GFP reporter) ([1]; 20 μM RTx-161): reduction in cellular MMEJ; also recorded: suppression of MMEJ | % GFP/dsRED ratio, Combined mean ([1]; 20 uM): 1.611% | % GFP/dsRED ratio, mean per experiment ([1]; 20 uM): 1.8% and 1.367% and 1.667% | % GFP/dsRED ratio ([1]; 20 uM): 1.9% and 1.3% and 1.8% and 1.6% (2×) and 1.5% and 1.2% and 1.7% | survival relative to 0 uM [2, 5]: 105.26% and 120.00% | survival relative to 0 uM ([2]; 150 cells/well, RTx-161 2.5 uM): 73.68% and 115.00% | survival relative to 0 uM ([2]; 150 cells/well, RTx-161 5 uM): 89.47% and 105.00% | survival relative to 0 uM ([2]; 150 cells/well, RTx-161 10 uM): 94.74% and 95.00% | survival relative to 0 uM ([2]; 150 cells/well, RTx-161 20 uM): 73.68% and 90.00% | survival relative to 0 uM [2, 6]: 106.67% and 94.44% | survival relative to 0 uM ([2]; 300 cells/well, RTx-161 2.5 uM): 83.33% | survival relative to 0 uM ([2]; 300 cells/well, RTx-161 5 uM): 83.33% and 86.11% | survival relative to 0 uM ([2]; 300 cells/well, RTx-161 10 uM): 86.67% and 94.44% | survival relative to 0 uM ([2]; 300 cells/well, RTx-161 20 uM): 80.00% and 83.33% | survival relative to 0 uM, mean of the four experiments ([2]; RTx-161 1.25 uM): 106.59% | survival relative to 0 uM, mean of the four experiments ([2]; RTx-161 2.5 uM): 88.84% | survival relative to 0 uM, mean of the four experiments ([2]; RTx-161 5 uM): 90.98% | survival relative to 0 uM, mean of the four experiments ([2]; RTx-161 10 uM): 92.71% | survival relative to 0 uM, mean of the four experiments ([2]; RTx-161 20 uM): 81.75% | sensitivity of Brca1^CC/CC;Polq^-/- cells ([2]; compared to Brca1^CC/CC cells): resistant | pooled Average (normalized) ([3]; RTX-161 2.5 micro M): 50.51 | Normalized ([3]; RTX-161 2.5 micro M): 61.5322 and 50 and 40 | Normalized ([3]; RTX-161 5 micro M): 48.9756 and 28.3333 and 33.3333 | pooled Average (normalized) ([3]; RTX-161 10 micro M): 33.4 | pooled Average (normalized) ([3]; RTX-161 20 micro M): 18.83 | survival relative to 0 uM ([3]; RTx-161 1.25 uM): 84.85% and 90.38% | survival relative to 0 uM ([3]; RTx-161 2.5 uM): 72.73% and 53.85% | survival relative to 0 uM ([3]; RTx-161 5 uM): 60.61% and 50.00% | survival relative to 0 uM ([3]; RTx-161 10 uM): 51.52% and 57.69% | survival relative to 0 uM ([3]; RTx-161 20 uM): 39.39% and 48.08% | survival relative to 0 uM, mean of the four experiments ([3]; RTx-161 1.25 uM): 86.23% | survival relative to 0 uM, mean of the four experiments ([3]; RTx-161 2.5 uM): 67.71% | survival relative to 0 uM, mean of the four experiments ([3]; RTx-161 5 uM): 56.39% | survival relative to 0 uM, mean of the four experiments ([3]; RTx-161 10 uM): 54.03% | survival relative to 0 uM, mean of the four experiments ([3]; RTx-161 20 uM): 47.47% | selective killing of Brca1^cc/cc MEFs ([3]; versus Brca1-WT MEFs): selective killing | pooled Average (normalized) ([4]; RTX-161 2.5 micro M): 86.6767 | Normalized ([4]; RTX-161 2.5 micro M): 94.0299 and 78.7879 and 87.2314 | pooled Average (normalized) ([4]; RTX-161 5 micro M): 84.2267 | Normalized ([4]; RTX-161 5 micro M): 88.0597 and 81.8182 and 82.8237 | pooled Average (normalized) ([4]; RTX-161 10 micro M): 87.7867 | Normalized ([4]; RTX-161 10 micro M): 100 and 72.7273 and 90.6469 | pooled Average (normalized) ([4]; RTX-161 20 micro M): 78.36 | Normalized ([4]; RTX-161 20 micro M): 65.6716 and 68.1818 and 101.237 | survival relative to 0 uM [4, 5]: 95.92% and 83.78% | survival relative to 0 uM ([4]; 150 cells/well, RTx-161 2.5 uM): 108.16% and 89.19% | survival relative to 0 uM ([4]; 150 cells/well, RTx-161 5 uM): 104.08% and 81.08% | survival relative to 0 uM ([4]; 150 cells/well, RTx-161 10 uM): 102.04% and 78.38% | survival relative to 0 uM ([4]; 150 cells/well, RTx-161 20 uM): 87.76% and 86.49% | survival relative to 0 uM [4, 6]: 109.62% and 92.19% | survival relative to 0 uM ([4]; 300 cells/well, RTx-161 2.5 uM): 88.46% and 93.75% | survival relative to 0 uM ([4]; 300 cells/well, RTx-161 5 uM): 92.31% and 106.25% | survival relative to 0 uM ([4]; 300 cells/well, RTx-161 10 uM): 96.15% and 100.00% | survival relative to 0 uM ([4]; 300 cells/well, RTx-161 20 uM): 103.85% and 96.88% | survival relative to 0 uM, mean of the four experiments ([4]; RTx-161 1.25 uM): 95.38% | survival relative to 0 uM, mean of the four experiments ([4]; RTx-161 2.5 uM): 94.89% | survival relative to 0 uM, mean of the four experiments ([4]; RTx-161 5 uM): 95.93% | survival relative to 0 uM, mean of the four experiments ([4]; RTx-161 10 uM): 94.14% | survival relative to 0 uM, mean of the four experiments ([4]; RTx-161 20 uM): 93.74%
